Assay results reported in US10793547B2, “Modulator of the cystic fibrosis transmembrane conductance regulator, pharmaceutical compositions, methods of treatment, and process for making the modulator” (Vertex Pharmaceuticals Incorporated, priority 2016, dated 2020).

What was measured:
[1] = molecular target: T1, F508del-CFTR (Homo sapiens, UniProt P13569, DEL508-508); test: Membrane potential optical (FLIPR) assay for F508del-CFTR modulators in NIH 3T3 cells; assay type: cell-based; settings: NIH 3T3 cells expressing F508del; assay A1; read-out: CFTRdF508 Cor 3T3 FLIPR 384 CFTRdF508 MP 3T3 770 EC50
T1 construct: expressed in transfected cells
Text: Membrane Potential Optical Methods for Assaying Properties of F508del-CFTR Modulators
The assay utilizes fluorescent voltage sensing dyes to measure changes in membrane potential using a fluorescent plate reader (e.g., FLIPR III, Molecular Devices, Inc.) as a readout for increase in functional F508del in NIH 3T3 cells. The driving force for the response is the creation of a chloride ion gradient in conjunction with channel activation and concurrent with compound treatment by a single liquid addition step after the cells have previously been loaded with a voltage sensing dye.
A1. Identification of F508del-CFTR Modulators
To identify modulators of F508del, a fluorescence based HTS assay format was developed. This HTS assay utilizes fluorescent voltage sensing dyes to measure changes in membrane potential on the FLIPR III as a measurement for increase in gating (conductance) of F508del NIH 3T3 cells. The driving force for the response is the creation of a chloride ion gradient in conjunction with channel activation and concurrent with compound treatment by a single liquid addition step after the cells have previously been loaded with a voltage sensing dye.
Bath Solution #1: (in mM) NaCl 160, KCl 4.5, CaCl2 2, MgCl2 1, HEPES 10, pH 7.4 with NaOH, Glucose 10.
Chloride-free bath solution: Chloride salts in Bath Solution #1 (above) are substituted with gluconate salts.
NIH3T3 mouse fibroblasts stably expressing F508del were used for optical measurements of membrane potential. The cells were maintained at 37° C. in 5% CO2 and 90% humidity in Dulbecco's modified Eagle's medium supplemented with 2 mM glutamine, 10% fetal bovine serum, 1×NEAA, β-ME, 1× pen/strep, and 25 mM HEPES in 175 cm^2 culture flasks. For all optical assays, the cells were seeded at 12,000 cells/well in 384-well matrigel-coated plates and cultured for 18-24 hrs at 37° C. for the potentiator assay. For the correction assay, the cells were cultured at 37° C. with and without compounds for 18-24 hours.

[2] = molecular target: T2, human PXR (Homo sapiens, UniProt O75469); test: PXR assay: PXR mediated CYP3A4 induction in DPX-2 cell line; assay type: cell-based; settings: DPX-2 cells
T2 construct: host or cells: DPX-2 cell line (derived from HepG2)
T2 sequence (O75469 1-434): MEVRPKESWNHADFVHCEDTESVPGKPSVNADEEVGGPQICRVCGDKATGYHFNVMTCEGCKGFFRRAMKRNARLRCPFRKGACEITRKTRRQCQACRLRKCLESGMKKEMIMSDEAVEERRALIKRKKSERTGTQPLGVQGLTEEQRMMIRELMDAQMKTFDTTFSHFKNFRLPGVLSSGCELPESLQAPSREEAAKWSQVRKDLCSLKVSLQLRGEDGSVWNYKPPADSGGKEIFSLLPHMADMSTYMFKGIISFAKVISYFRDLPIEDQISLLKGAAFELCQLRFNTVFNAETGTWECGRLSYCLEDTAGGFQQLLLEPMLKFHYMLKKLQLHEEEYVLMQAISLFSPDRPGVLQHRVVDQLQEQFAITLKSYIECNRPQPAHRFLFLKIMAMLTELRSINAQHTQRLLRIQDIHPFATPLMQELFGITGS
Experimental: D. Experimental Protocol for PXR Assay
The propensity for PXR mediated CYP3A4 induction is assessed using the DPX-2 cell line in vitro. This cell line, which has been licensed from Puracyp Inc. was derived from HepG2 cells and has been stably transfected with genes encoding human PXR as well as a modified luciferase reporter linked to the CYP3A4 promoter region and related distal and proximal enhancers.
The assay is run in 384 well format and each test article is administered in 11 doses ranging from 0.1 to 60 μM. On day 1, DPX-2 cells which have previously been expanded in-house and cryopreserved are thawed and seeded in tissue culture plates. The following day, media is changed and cells are cultured in media containing test article, vehicle control or the positive control compound, the clinically validated CYP3A4 inducer rifampicin. Cells are cultured in the presence of test article for 48 hours and then cell viability is assessed using fluorescence based assay (Cell Titer-Fluor, Promega) with an EnVision Plate Reader (PerkinElmer). Subsequently, CYP3A4 transactivation, which is proportional to luciferase activity, is measured by reading luminescense using the Promega One-Glo reagent system using the same plate reader.
Data processing within the Genedata software package allows reporting of max fold induction compared to vehicle control, an EC50 value for CYP3A4 inducers and an 11 point-dose response curve.

[3] = MDCK-Wild Type permeability, 96 well + 0.1% BSA; assay type: in vitro ADME; settings: dog, MDCK, A-B direction, read-out: MDCK-Wild Type-Permeability 96 well + 0.1% BSA Papp compound (A-B)
[4] = system: Rat hepatocytes; test: Hepatocyte clearance, rat hepatocytes; assay type: in vitro ADME; settings: percent unchanged
[5] = Rat IV and PO PK studies; assay type: in vivo, male Sprague-Dawley rats; settings: for RAT PLASMA-RAW IV-bolus CL_drg: nominal 3.0 mg/kg; for RAT PLASMA-RAW PO % F_drg / AUC(0-inf): nominal 3 mg/kg, PO; for AUC(0-inf): male, Sprague-Dawley, plasma, read-out: RAT PLASMA-RAW PO AUC (0-inf)_drg
Experimental: C. Experimental Protocol for Rat IV and PO PK Studies
The tested compound was administered to male Sprague-Dawley rats as a single nominal intravenous dose of 3.0 mg/kg as a solution in 10% NMP, 10% solution, 15% EtOH, 35% PEG400 and 30% D5W. The tested compound was also administered to male Sprague-Dawley rats at single nominal oral dose of 3 mg/kg as a solution in 5% NMP, 30% PEG400, 10% TPGS, 5% PVP-K30 at 5 mL/kg dose volume. Analyses of plasma and dose preparations were performed using LC/MS/MS.
Plasma concentration-time profiles of the tested compound in Sprague-Dawley rats at scheduled (nominal) sampling times were analyzed by noncompartmental pharmacokinetic methods using PK function within Watson LIMS software, Version 7.4.2 (Thermo Scientific Inc, Waltham, Mass.). AUC values were calculated using the linear trapezoidal rule.

T1 sequence (P13569 with tags, fused parts or gaps DEL508-508): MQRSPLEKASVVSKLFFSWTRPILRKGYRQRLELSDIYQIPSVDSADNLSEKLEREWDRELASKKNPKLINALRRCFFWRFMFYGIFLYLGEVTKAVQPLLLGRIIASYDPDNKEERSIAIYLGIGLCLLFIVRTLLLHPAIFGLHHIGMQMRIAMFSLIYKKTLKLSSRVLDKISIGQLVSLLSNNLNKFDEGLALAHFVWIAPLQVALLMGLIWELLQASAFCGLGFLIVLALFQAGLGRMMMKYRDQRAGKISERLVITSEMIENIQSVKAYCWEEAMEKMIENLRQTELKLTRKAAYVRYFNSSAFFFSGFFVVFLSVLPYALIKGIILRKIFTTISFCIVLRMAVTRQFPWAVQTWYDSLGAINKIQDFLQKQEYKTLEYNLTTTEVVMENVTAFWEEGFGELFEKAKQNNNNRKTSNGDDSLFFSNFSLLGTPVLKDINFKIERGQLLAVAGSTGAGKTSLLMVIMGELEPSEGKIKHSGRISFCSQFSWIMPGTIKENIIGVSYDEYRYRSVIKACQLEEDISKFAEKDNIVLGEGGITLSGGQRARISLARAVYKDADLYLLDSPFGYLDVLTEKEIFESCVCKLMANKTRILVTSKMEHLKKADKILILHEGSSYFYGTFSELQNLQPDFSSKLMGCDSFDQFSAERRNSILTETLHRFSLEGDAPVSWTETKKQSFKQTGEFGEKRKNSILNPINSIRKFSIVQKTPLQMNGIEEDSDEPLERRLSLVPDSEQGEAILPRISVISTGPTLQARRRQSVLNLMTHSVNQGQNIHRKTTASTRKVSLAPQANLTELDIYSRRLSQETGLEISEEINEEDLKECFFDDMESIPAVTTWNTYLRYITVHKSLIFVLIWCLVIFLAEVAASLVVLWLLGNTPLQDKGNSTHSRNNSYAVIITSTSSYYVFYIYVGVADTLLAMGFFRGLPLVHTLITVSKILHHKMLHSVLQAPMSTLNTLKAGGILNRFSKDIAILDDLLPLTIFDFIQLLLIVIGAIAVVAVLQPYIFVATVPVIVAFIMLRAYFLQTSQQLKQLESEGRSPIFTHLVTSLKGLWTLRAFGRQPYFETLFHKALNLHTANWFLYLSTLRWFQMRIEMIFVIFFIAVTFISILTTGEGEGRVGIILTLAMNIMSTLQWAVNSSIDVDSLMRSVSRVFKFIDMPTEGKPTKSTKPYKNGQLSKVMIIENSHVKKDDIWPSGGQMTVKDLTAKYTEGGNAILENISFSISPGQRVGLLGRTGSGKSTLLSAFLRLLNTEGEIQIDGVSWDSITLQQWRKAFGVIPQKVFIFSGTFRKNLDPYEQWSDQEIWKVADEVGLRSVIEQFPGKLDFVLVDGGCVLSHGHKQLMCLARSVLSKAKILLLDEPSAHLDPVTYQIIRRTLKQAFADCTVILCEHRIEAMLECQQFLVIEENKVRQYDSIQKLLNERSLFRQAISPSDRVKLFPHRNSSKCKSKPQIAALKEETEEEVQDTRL

Structure (SMILES) | EC50 [1] | CYP3A4 Induction-PXR human PXR internal Max % Activity [2] | Papp A→B [3] | Hepatocyte clearance-Rat Rat hepatocytes CL pct_unchanged [4] | RAT PLASMA-RAW IV-bolus CL_drg [5] | RAT PLASMA-RAW PO % F_drg [5] | AUC(0-inf) [5]
Cc1c(S(=O)(=O)NC(=O)c2ccc(-n3ccc(OCC(C)(C)C(F)(F)F)n3)nc2N2C[C@@H](C)CC2(C)C)cnn1C [Compound 13, N-(1,5-dimethylpyrazol-4-yl)sulfonyl-6-[3-(3,3,3-trifluoro-2,2-dimethyl-propoxy)pyrazol-1-yl]-2-[(4S)-2,2,4-trimethylpyrrolidin-1-yl]pyridine-3-carboxamide] | 130 nM | 4% | 11.7 ×10⁻⁶ cm/s | 117% | 3 mL/min/kg | 65% | 13400 ng·h/mL
Cc1c(S(=O)(=O)NC(=O)c2ccc(-n3ccc(OCCC4(C(F)(F)F)CC4)n3)nc2N2C[C@@H](C)CC2(C)C)cnn1C [Compound 14, N-(1,5-dimethylpyrazol-4-yl)sulfonyl-6-[3-[2-[1-(trifluoromethyl)cyclopropyl]ethoxy]pyrazol-1-yl]-2-[(4S)-2,2,4-trimethylpyrrolidin-1-yl]pyridine-3-carboxamide] | 280 nM | 2% | 2.8 ×10⁻⁶ cm/s | 50% | 3.9 mL/min/kg | 61% | 10500 ng·h/mL
Cc1nn(C)cc1S(=O)(=O)NC(=O)c1ccc(-n2ccc(OCC3C(C)(C)C3(C)C)n2)nc1N1C[C@@H](C)CC1(C)C [Compound 20, N-(1,3-dimethylpyrazol-4-yl)sulfonyl-6-[3-[(2,2,3,3-tetramethylcyclopropyl)methoxy]pyrazol-1-yl]-2-[(4S)-2,2,4-trimethylpyrrolidin-1-yl]pyridine-3-carboxamide] | 170 nM | 4% | 1.4 ×10⁻⁶ cm/s | 13% | 4.9 mL/min/kg | 21% | 3000 ng·h/mL
Cc1nn(C)c(C)c1S(=O)(=O)NC(=O)c1ccc(-n2ccc(OCCC3(C(F)(F)F)CC3)n2)nc1N1C[C@@H](C)CC1(C)C [Compound 18, 6-[3-[2-[1-(trifluoromethyl)cyclopropyl]ethoxy]pyrazol-1-yl]-N-(1,3,5-trimethylpyrazol-4-yl)sulfonyl-2-[(4S)-2,2,4-trimethylpyrrolidin-1-yl]pyridine-3-carboxamide] | 170 nM | 5% | 8 ×10⁻⁶ cm/s | 0% |  |  | 
C[C@@H]1CN(c2nc(-n3ccc(OCC4(C(F)(F)F)CC4)n3)ccc2C(=O)NS(=O)(=O)c2cn[nH]c2)C(C)(C)C1 [Compound 5, N-(1H-pyrazol-4-ylsulfonyl)-6-[3-[[1-(trifluoromethyl)cyclopropyl]methoxy]pyrazol-1-yl]-2-[(4S)-2,2,4-trimethylpyrrolidin-1-yl]pyridine-3-carboxamide] | 1300 nM | 0% | 0.3 ×10⁻⁶ cm/s | 33% |  |  | 
Cc1nn(C)cc1S(=O)(=O)NC(=O)c1ccc(-n2ccc(OCC3C4(CC4)C34CC4)n2)nc1N1C[C@@H](C)CC1(C)C [Compound 28, (S)—N-((1,3-Dimethyl-1H-pyrazol-4-yl)sulfonyl)-6-(3-(dispiro[2.0.2.1]heptan-7-ylmethoxy)-1H-pyrazol-1-yl)-2-(2,2,4-trimethylpyrrolidin-1-yl)nicotinamide] | 90 nM | 4% | 2.2 ×10⁻⁶ cm/s | 41% | 1.8 mL/min/kg | 80% | 7100 ng·h/mL
Cc1nn(C)cc1S(=O)(=O)NC(=O)c1ccc(-n2ccc(OCCC(C3CC3)C3CC3)n2)nc1N1C[C@@H](C)CC1(C)C [Compound 38, 6-[3-(3,3-dicyclopropylpropoxy)pyrazol-1-yl]-N-(1,3-dimethylpyrazol-4-yl)sulfonyl-2-[(4S)-2,2,4-trimethylpyrrolidin-1-yl]pyridine-3-carboxamide] | 110 nM | 2% | 1 ×10⁻⁶ cm/s | 56% |  |  | 
C[C@@H]1CN(c2nc(-n3ccc(OCC(C)(C)C)n3)ccc2C(=O)NS(=O)(=O)c2ccc[nH]c2=O)C(C)(C)C1 [B, reference compound] | 260 nM | 3% | 0.4 ×10⁻⁶ cm/s | 13% |  |  | 
C[C@@H]1CN(c2nc(-n3ccc(OCC(C)(C)C)n3)ccc2C(=O)NS(=O)(=O)c2ccccc2)C(C)(C)C1 [C, reference compound] | 120 nM | 9% | 1.5 ×10⁻⁶ cm/s | 6% | 29.2 mL/min/kg |  | 
Cc1nn(C)cc1S(=O)(=O)NC(=O)c1ccc(-n2ccc(OCC3C[C@@H]4CC[C@H]3C4)n2)nc1N1C[C@@H](C)CC1(C)C (stereo partly drawn) [Compound 50, N-(1,3-dimethylpyrazol-4-yl)sulfonyl-6-[3-[[(1S,4R)-norbornan-2-yl]methoxy]pyrazol-1-yl]-2-[(4S)-2,2,4-trimethylpyrrolidin-1-yl]pyridine-3-carboxamide] | 80 nM | 4% | 1.3 ×10⁻⁶ cm/s | 20% |  |  | 
Cc1nn(C)cc1S(=O)(=O)NC(=O)c1ccc(-n2ccc(OCC3(C(F)(F)F)CC3)n2)nc1N1CC(C(C)(C)C)CC1(C)C (single isomer, unassigned) [Compound 54, 2-(4-tert-butyl-2,2-dimethyl-pyrrolidin-1-yl)-N-(1,3-dimethylpyrazol-4-yl)sulfonyl-6-[3-[[1-(trifluoromethyl)cyclopropyl]methoxy]pyrazol-1-yl]pyridine-3-carboxamide] | 50 nM | 5% | 1.1 ×10⁻⁶ cm/s | 30% |  |  | 
